According to patent publication US20260092057A1, “BCL-XL/BCL-2 DEGRADERS AND USES THEREOF” (Kymera Therapeutics, Inc., priority 2022, published 2026):
Read-outs that look alike come from different tables or passages of the source.

Columns and labels:
[1] = test system: Caki-2 cells; assay: CTG (CellTiter-Glo) cell viability assay, Caki-2; assay type: cell-based; settings: Caki-2, 3-day, read-out: CTG Chempartner/PHA- Caki-2 3-day: Average external-IC50
Protocol: (§1) Compound-mediated viability effect on MOLT-4 and Caki-2 was quantitatively determined using the CellTiter-Glo® Luminescent Cell Viability Assay kit from Promega (Catalog number G7570) following manufacturer's recommended procedures. Briefly, MOLT-4 and Caki-2 cells were seeded into 384 well plates (Grenier Bio-One, Catalog number 781080) with a density of 10,000 cells per well. Compounds were then added to the assay plate with final top concentration of 10 µM and 1:3 dilution series with total of 9 doses. The final DMSO concentration is normalized to 0.2%. The assay plates were incubated at 37° C. for 3 days under 5% CO2. Then the assay plate was equilibrated at room temperature for 10 minutes. To determine cell viability, 30 uL CellTiter Glo reagent was added to each well and the assay plate was centrifuged at 1000 rpm for 30 second, incubated at room temperature for 10 min, and analyzed by detecting the luminescence using a multimode plate reader (EnVision 2105, PerkinElmer). The data was then analyzed by software Prism 7.0 from GraphPad and the dose response curves are fit using a three-parameter logistic equation to calculate IC50.
(§2) The letter codes for MOLT-4 IC50 include: A (<0.1 μM); B (0.1-1.0 μM); C (>1.0-3.0 μM); and D (>3.0 μM). The letter codes for Caki-2 IC50 include: A (<5 μM); B (5-10 μM); C (>10-30.0 μM); and D (>30.0 μM).

[2] = test system: MOLT-4 cells; assay: CTG (CellTiter-Glo) cell viability assay, MOLT-4; assay type: cell-based; settings: MOLT-4, 3 day, read-out: CTG Cell Viability Assay - MOLT-4 3 day: Average external-IC50
Protocol: as §1, §2

| SMILES | IC50 [1] [µM] | IC50 [2] [µM] | IC50 ([1]; Homo sapiens, CAKI-2, 72 h) [µM] | IC50 ([2]; Homo sapiens, MOLT-4, 72 h) [µM] |
| --- | --- | --- | --- | --- |
| Cc1ncsc1-c1ccc([C@H](C)NC(=O)[C@@H]2C[C@@H](O)CN2C(=O)[C@@H](NC(=O)CCCCCC(=O)N2CCN(C[C@]3(C)CCC(c4ccc(Cl)cc4)=C(CN4CCN(c5ccc(C(=O)NS(=O)(=O)c6ccc(NCCCN7CCOCC7)c(S(=O)(=O)C(F)(F)F)c6)c(Oc6cnc7[nH]ccc7c6)c5)CC4)C3)CC2)C(C)(C)C)cc1 [I-132] | > 30 | 0.1 to 1 |  |  |
| Cc1ncsc1-c1ccc([C@H](C)NC(=O)[C@@H]2C[C@@H](O)CN2C(=O)[C@@H](NC(=O)CCCCCC(=O)N2CCN(CCCNc3ccc(S(=O)(=O)NC(=O)c4ccc(N5CCN(C)CC5)cc4Oc4cnc5[nH]ccc5c4)cc3S(=O)(=O)C(F)(F)F)CC2)C(C)(C)C)cc1 [I-57] |  |  | > 30 | > 3 |
| Cc1ncsc1-c1ccc([C@H](C)NC(=O)[C@@H]2C[C@@H](O)CN2C(=O)[C@@H](NC(=O)CCCC(=O)N2CCN(CC[C@H](CSc3ccccc3)Nc3ccc(S(=O)(=O)NC(=O)c4ccc(N5CCC([C@@H](O)c6ccccc6-c6ccc(Cl)cc6)CC5)cc4)cc3S(=O)(=O)C(F)(F)F)CC2)C(C)(C)C)cc1 [I-110] |  |  | > 30 | 0.1 to 1 |
| Cc1ncsc1-c1ccc([C@H](C)NC(=O)[C@@H]2C[C@@H](N)CN2C(=O)[C@@H](NC(=O)C2CCN(CCCNc3ccc(S(=O)(=O)NC(=O)c4ccc(N5CCC([C@@H](O)c6ccccc6-c6ccc(Cl)cc6)CC5)cc4Oc4cnc5[nH]ccc5c4)cc3S(=O)(=O)C(F)(F)F)CC2)C(C)(C)C)cc1 (single isomer, unassigned) [I-91] |  |  | > 30 | > 3 |
| Cc1ncsc1-c1ccc([C@H](C)NC(=O)[C@@H]2C[C@@H](O)CN2C(=O)[C@@H](NC(=O)C2CCN(C3CCN(CCCNc4ccc(S(=O)(=O)NC(=O)c5ccc(N6CCN(CC7=C(c8ccc(Cl)cc8)CC(C)(C)CC7)CC6)cc5Oc5cnc6[nH]ccc6c5)cc4S(=O)(=O)C(F)(F)F)CC3)CC2)C(C)(C)C)cc1 [I-90] |  |  | > 30 | > 3 |
| Cc1ncsc1-c1ccc([C@H](C)NC(=O)[C@@H]2C[C@@H](O)CN2C(=O)[C@@H](NC(=O)CCCCCC(=O)N2CCN(CCNc3ccc(S(=O)(=O)NC(=O)c4ccc(N5CCN(CC6=C(c7ccc(Cl)cc7)CC(C)(C)CC6)CC5)cc4Oc4cnc5[nH]ccc5c4)cc3S(=O)(=O)C(F)(F)F)CC2)C(C)(C)C)cc1 [I-97] |  |  | > 30 | > 3 |
| Cc1ncsc1-c1ccc([C@H](C)NC(=O)[C@@H]2C[C@@H](O)CN2C(=O)[C@@H](NC(=O)C2CCN(c3ccc(NC(=O)c4ccc(-c5ccc(Cl)cc5)c([C@@H](O)C5CCN(c6ccc(C(=O)NS(=O)(=O)c7ccc(N[C@H](CCN(C)CCO)CSc8ccccc8)c(S(=O)(=O)C(F)(F)F)c7)cc6)CC5)c4)cc3)CC2)C(C)(C)C)cc1 [I-123] |  |  | > 30 | > 3 |
| Cc1ncsc1-c1ccc([C@H](C)NC(=O)[C@@H]2C[C@@H](O)CN2C(=O)[C@@H](NC(=O)CCCCCC(=O)N2CCN(Cc3ccc(-c4ccc(Cl)cc4)c([C@H](O)C4CCN(c5ccc(C(=O)NS(=O)(=O)c6ccc(N[C@H](CCN(C)CCO)CSc7ccccc7)c(S(=O)(=O)C(F)(F)F)c6)cc5)CC4)c3)CC2)C(C)(C)C)cc1 [I-30] |  |  | > 30 | > 3 |
| C#Cc1ccc([C@H](C)NC(=O)[C@@H]2C[C@@H](O)CN2C(=O)[C@@H](NC(=O)CCCCCCC(=O)N2CCN(C[C@]3(C)CCC(c4ccc(Cl)cc4)=C(CN4CCN(c5ccc(C(=O)NS(=O)(=O)c6ccc(NCCCN7CCOCC7)c(S(=O)(=O)C(F)(F)F)c6)c(Oc6cnc7[nH]ccc7c6)c5)CC4)C3)CC2)C(C)(C)C)cc1 [I-138] |  |  | 10 to 30 | 0.1 to 1 |
| Cc1ncsc1-c1ccc([C@H](C)NC(=O)[C@@H]2C[C@@H](O)CN2C(=O)[C@@H](NC(=O)CCC2CCN(CCCNc3ccc(S(=O)(=O)NC(=O)c4ccc(N5CCN([C@H](O)c6ccccc6-c6ccc(Cl)cc6)CC5)cc4Oc4cnc5[nH]ccc5c4)cc3S(=O)(=O)C(F)(F)F)CC2)C(C)(C)C)cc1 [I-129] |  |  | > 30 | > 3 |
| Cc1ncsc1-c1ccc([C@H](C)NC(=O)[C@@H]2C[C@@H](O)CN2C(=O)[C@@H](NC(=O)CCCCCC(=O)N2CCN(c3ccc(-c4ccc(Cl)cc4)c(CN4CCN(c5ccc(C(=O)NS(=O)(=O)c6ccc(NCCCN(C)C)c(S(=O)(=O)C(F)(F)F)c6)c(Oc6cnc7[nH]ccc7c6)c5)CC4)c3)CC2)C(C)(C)C)cc1 [I-99] |  |  | > 30 | > 3 |
| Cc1ncsc1-c1ccc([C@H](C)NC(=O)[C@@H]2C[C@@H](O)CN2C(=O)[C@@H](NC(=O)CCCCCC(=O)N2CCN(CC[C@H](CSc3ccccc3)Nc3ccc(S(=O)(=O)NC(=O)c4ccc(N5CCC6(CN(C)C6)C5)cc4)cc3S(=O)(=O)C(F)(F)F)CC2)C(C)(C)C)cc1 [I-50] |  |  | > 30 | > 3 |
